Measurements as given in patent publication US20240400577A1, “MODULATORS OF PROTEIN KINASES” (VIBLIOME THERAPEUTICS, LLC, priority 2021, published 2024).
Values belong to the compound of their own block, whether it stands above or below them.

Experiments:
Assay in all cases: Kinase panel enzymatic inhibition assay (Nanosyn)
Type in all cases: biochemical
WEE1 = molecular target: T1, WEE1 (Homo sapiens, UniProt P30291); details: ATP at Km; 30-minute pre-incubation; read-out: kinase inhibition in terms of IC50, WEE1
T1 construct: purchased Nanosyn
T1 sequence (P30291 whole entry): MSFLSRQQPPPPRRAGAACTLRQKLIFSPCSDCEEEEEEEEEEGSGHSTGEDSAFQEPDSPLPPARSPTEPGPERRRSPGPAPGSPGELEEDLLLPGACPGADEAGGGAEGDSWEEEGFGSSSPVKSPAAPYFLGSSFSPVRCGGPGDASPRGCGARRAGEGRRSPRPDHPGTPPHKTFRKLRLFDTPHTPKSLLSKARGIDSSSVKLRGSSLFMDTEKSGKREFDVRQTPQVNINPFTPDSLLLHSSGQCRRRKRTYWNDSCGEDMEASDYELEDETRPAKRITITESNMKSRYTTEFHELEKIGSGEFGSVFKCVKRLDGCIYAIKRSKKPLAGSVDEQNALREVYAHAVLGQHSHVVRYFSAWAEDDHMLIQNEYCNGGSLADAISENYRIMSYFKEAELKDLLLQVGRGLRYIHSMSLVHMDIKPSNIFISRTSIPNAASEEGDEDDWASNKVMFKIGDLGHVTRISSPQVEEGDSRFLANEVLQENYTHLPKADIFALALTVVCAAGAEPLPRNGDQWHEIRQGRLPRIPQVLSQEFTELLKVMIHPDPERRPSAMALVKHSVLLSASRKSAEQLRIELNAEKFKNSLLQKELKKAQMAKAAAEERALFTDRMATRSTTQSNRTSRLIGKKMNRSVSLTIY
Procedure: (§1) The disclosed compounds were tested for activity against a panel of at least 300 kinases. Kinase panel screening was conducted by Nanosyn (Santa Clara, CA 95051) using an enzymatic inhibition assay accepted as valid by those skilled in the art (e.g., the Caliper LabChip® mobility shift assay, an ADP detection assay, or time-resolved fluorescence detection technology. Compounds were screened at a concentration of 5 μM using an ATP concentration at the Km for each of the respective kinases and a 30-minute pre-incubation time-point.
(§2) In Table 1 and 2, kinase inhibition is classified by: A=95% or greater, B=90%-94%, C=80%-89%, and D=79% and less with a compound concentration of 5 JIM. In Table 3 and 4, kinase inhibition is reported in terms of IC50 values corresponding to A=less than 500 nm, B=500 nm to less than 1 μM, C=1 μM to less than 10 μM, and D=10 μM or greater using a compound concentration of 5 μM.

SYK = molecular target: T2, SYK (Homo sapiens, UniProt P43405); details: ATP at Km; 30-minute pre-incubation; read-out: kinase inhibition in terms of IC50, SYK
T2 construct: purchased Nanosyn
Procedure: as §1, §2

PAK1 = molecular target: T3, PAK1 (Homo sapiens, UniProt Q13153); details: ATP at Km; 30-minute pre-incubation; read-out: kinase inhibition in terms of IC50, PAK1
T3 construct: Nanosyn (contract laboratory that ran the panel)
T3 sequence (Q13153 whole entry): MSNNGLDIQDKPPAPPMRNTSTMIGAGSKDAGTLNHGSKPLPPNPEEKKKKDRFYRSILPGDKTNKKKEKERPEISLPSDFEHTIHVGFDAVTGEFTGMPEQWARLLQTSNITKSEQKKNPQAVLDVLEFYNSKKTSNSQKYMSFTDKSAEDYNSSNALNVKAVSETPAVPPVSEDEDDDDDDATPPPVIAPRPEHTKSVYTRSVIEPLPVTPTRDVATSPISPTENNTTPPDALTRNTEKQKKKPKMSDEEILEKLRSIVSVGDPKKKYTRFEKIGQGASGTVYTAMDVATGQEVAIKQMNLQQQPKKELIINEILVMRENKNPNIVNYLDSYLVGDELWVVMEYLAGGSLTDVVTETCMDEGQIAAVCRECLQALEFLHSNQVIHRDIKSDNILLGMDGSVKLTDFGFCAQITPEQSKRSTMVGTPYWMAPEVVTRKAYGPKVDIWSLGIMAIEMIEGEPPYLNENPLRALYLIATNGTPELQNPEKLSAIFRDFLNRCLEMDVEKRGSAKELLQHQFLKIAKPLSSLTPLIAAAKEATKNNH
Procedure: as §1, §2

TYRO3 = molecular target: T4, TYRO3 (Homo sapiens, UniProt Q06418); details: ATP at Km; 30-minute pre-incubation; read-out: kinase inhibition in terms of IC50, TYRO3
T4 construct: purchased Nanosyn
T4 sequence (Q06418 41-890): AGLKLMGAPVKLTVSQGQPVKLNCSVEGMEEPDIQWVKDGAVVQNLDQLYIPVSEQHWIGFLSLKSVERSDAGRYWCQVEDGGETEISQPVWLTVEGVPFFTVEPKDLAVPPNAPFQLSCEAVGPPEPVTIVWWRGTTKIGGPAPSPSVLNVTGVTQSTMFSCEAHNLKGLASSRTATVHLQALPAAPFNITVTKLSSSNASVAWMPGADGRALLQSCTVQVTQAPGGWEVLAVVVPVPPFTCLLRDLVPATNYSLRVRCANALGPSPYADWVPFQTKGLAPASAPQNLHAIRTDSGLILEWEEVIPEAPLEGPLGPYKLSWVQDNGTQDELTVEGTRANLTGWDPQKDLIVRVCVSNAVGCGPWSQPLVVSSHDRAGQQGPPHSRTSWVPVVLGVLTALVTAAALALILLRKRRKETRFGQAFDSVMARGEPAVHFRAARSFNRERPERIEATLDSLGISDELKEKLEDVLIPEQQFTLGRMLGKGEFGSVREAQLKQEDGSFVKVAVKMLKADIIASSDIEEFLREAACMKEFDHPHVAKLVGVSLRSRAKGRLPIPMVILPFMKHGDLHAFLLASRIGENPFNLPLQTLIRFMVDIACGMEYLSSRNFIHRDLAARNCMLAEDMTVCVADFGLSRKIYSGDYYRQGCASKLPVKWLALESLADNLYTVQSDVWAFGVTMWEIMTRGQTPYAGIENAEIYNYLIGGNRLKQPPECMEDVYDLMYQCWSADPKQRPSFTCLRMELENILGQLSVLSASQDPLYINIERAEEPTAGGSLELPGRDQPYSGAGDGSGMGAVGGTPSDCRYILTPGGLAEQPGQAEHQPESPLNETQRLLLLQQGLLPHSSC
Procedure: as §1, §2

RIPK1 = molecular target: T5, RIPK1 (Homo sapiens, UniProt Q13546); details: ATP at Km; 30-minute pre-incubation; read-out: kinase inhibition in terms of IC50, RIPK1
T5 construct: purchased Nanosyn
T5 sequence (Q13546 1-671): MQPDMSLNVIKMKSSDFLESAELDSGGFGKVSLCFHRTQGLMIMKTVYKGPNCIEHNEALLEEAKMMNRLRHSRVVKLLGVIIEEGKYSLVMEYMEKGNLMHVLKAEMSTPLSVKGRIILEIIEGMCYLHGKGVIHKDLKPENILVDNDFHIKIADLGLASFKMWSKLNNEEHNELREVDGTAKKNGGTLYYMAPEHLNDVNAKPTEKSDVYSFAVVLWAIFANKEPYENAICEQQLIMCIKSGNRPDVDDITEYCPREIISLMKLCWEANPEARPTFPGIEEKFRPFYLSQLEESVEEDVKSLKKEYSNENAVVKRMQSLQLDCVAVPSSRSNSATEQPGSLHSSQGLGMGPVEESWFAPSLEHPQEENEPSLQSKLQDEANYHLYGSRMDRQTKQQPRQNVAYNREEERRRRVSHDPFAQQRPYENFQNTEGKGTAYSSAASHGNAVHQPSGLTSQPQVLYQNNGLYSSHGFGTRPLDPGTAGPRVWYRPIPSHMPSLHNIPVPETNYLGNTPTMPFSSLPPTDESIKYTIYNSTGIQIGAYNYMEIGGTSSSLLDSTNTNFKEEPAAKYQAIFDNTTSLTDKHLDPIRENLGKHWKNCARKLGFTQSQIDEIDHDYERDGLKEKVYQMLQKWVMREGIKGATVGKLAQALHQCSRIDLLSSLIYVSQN
Procedure: as §1, §2

RIPK2 = molecular target: T6, RIPK2 (Homo sapiens, UniProt O43353); details: ATP at Km; 30-minute pre-incubation; read-out: kinase inhibition in terms of IC50, RIPK2
T6 construct: purchased Nanosyn
T6 sequence (O43353 whole entry): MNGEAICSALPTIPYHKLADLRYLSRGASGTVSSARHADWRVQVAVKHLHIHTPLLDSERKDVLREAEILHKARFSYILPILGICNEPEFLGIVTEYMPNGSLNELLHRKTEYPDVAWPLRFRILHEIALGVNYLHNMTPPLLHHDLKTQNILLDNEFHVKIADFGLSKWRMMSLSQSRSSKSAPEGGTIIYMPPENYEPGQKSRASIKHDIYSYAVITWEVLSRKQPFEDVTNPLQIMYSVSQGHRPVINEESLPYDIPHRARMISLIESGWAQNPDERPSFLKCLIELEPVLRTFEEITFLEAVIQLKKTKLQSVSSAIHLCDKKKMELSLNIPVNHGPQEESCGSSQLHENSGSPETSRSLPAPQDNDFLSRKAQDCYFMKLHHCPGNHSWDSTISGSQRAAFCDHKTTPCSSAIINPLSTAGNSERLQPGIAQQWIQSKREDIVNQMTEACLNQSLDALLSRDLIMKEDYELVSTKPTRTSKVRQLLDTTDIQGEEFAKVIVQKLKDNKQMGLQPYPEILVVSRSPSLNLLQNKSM
Procedure: as §1, §2

TAK1-TAB1 = molecular target: T7, TAK1-TAB1 (Homo sapiens, UniProt O43318); details: ATP at Km; 30-minute pre-incubation; read-out: kinase inhibition in terms of IC50, TAK1-TAB1
T7 construct: purchased Nanosyn
T7 sequence (O43318 with tags, fused parts or gaps limits assumed): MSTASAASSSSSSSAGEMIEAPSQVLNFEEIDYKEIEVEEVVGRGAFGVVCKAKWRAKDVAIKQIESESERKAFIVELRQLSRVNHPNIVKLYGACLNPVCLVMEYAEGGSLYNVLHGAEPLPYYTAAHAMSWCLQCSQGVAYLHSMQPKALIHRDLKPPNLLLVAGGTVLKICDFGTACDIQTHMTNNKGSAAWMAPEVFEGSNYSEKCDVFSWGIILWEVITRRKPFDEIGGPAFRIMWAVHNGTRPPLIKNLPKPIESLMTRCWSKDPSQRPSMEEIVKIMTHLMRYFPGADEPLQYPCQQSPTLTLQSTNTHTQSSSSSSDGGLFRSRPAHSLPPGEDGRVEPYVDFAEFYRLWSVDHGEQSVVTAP
Procedure: as §1, §2

PLK4 = molecular target: T8, PLK4 (Homo sapiens, UniProt O00444); details: ATP at Km; 30-minute pre-incubation; read-out: kinase inhibition in terms of IC50, PLK4
T8 construct: Nanosyn (contract laboratory that ran the panel)
T8 sequence (O00444 1-970): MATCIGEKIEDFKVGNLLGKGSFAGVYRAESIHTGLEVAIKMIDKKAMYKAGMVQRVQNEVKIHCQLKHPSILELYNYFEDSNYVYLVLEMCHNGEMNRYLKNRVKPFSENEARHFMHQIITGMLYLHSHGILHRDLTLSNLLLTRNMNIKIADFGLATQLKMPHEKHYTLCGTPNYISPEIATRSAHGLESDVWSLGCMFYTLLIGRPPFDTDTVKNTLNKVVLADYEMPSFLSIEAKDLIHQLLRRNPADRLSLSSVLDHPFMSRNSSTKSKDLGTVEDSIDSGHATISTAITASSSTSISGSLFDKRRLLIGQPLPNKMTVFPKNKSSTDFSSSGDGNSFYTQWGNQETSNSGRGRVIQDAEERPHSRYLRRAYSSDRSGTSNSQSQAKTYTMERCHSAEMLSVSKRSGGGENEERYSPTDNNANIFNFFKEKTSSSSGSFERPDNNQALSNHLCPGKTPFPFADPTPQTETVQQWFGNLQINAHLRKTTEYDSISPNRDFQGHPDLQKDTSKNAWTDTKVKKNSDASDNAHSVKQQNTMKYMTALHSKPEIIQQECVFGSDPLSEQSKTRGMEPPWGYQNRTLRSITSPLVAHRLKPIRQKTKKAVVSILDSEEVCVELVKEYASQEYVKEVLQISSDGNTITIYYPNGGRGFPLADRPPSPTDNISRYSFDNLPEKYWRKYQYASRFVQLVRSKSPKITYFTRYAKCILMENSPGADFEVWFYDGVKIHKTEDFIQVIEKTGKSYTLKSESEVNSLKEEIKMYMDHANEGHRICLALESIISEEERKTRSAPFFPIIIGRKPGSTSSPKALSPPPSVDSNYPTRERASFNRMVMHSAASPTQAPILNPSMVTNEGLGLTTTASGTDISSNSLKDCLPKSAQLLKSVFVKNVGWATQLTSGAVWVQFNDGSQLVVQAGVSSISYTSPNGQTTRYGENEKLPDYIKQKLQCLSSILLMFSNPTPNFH
Procedure: as §1, §2

IC50 (WEE1): ≥ 10 µM
SMILES: CNc1ncc2c(C)c(-c3cc(NC(=O)c4ccn(-c5ccc(F)cc5)n4)ccc3Cl)c(=O)n(C)c2n1 [Ex69, N-(4-chloro-3-(5,8-dimethyl-2-(methylamino)-7-oxo-7,8-dihydropyrido[2,3-d]pyrimidin-6-yl)phenyl)-1-(4-fluorophenyl)-1H-pyrazole-3-carboxamide]

IC50 (WEE1): ≥ 10 µM
SMILES: CS(=O)(=O)c1cc(C(=O)Nc2cc(Br)c(F)c(C(=O)c3c[nH]c4ncc(Cl)cc34)c2F)nn1-c1ccc(F)cc1 [Ex70, N-(5-bromo-3-(5-chloro-1H-pyrrolo[2,3-b]pyridine-3-carbonyl)-2,4-difluorophenyl)-1-(4-fluorophenyl)-5-(methylsulfonyl)-1H-pyrazole-3-carboxamide]

IC50 (TYRO3): < 0.5 µM | IC50 (SYK): ≥ 10 µM
SMILES: COc1cc2nccc(Oc3ccc(NC(=O)c4cc(SC)n(-c5ccc(F)cc5)n4)c(F)c3)c2cc1OC [Ex77, N-(4-((6,7-dimethoxyquinolin-4-yl)oxy)-2-fluorophenyl)-1-(4-fluorophenyl)-5-(methylthio)-1H-pyrazole-3-carboxamide]

IC50 (RIPK1): ≥ 10 µM | IC50 (RIPK2): ≥ 10 µM
SMILES: Cn1cnc2ccc(Oc3ccc(F)c(NC(=O)c4ccn(-c5ccc(F)cc5)n4)c3)cc2c1=O [Ex80, N-(2-fluoro-5-((3-methyl-4-oxo-3,4-dihydroquinazolin-6-yl)oxy)phenyl)-1-(4-fluorophenyl)-1H-pyrazole-3-carboxamide]

IC50 (WEE1): ≥ 10 µM
SMILES: CNc1ncc2cc(-c3c(Cl)ccc(NC(=O)c4ccn(-c5ccc(F)cc5)n4)c3Cl)c(=O)n(C)c2n1 [Ex82, N-(2,4-dichloro-3-(8-methyl-2-(methylamino)-7-oxo-7,8-dihydropyrido[2,3-d]pyrimidin-6-yl)phenyl)-1-(4-fluorophenyl)-1H-pyrazole-3-carboxamide]

The next lines start with the compound.

SMILES: CNc1ncc2cc(-c3cc(NC(=O)c4ccn(-c5ccc(F)cc5)n4)ccc3C)c(=O)n(C)c2n1 [Ex74, 1-(4-fluorophenyl)-N-(4-methyl-3-(8-methyl-2-(methylamino)-7-oxo-7,8-dihydropyrido[2,3-d]pyrimidin-6-yl)phenyl)-1H-pyrazole-3-carboxamide]
IC50 (WEE1): ≥ 10 µM | IC50 (SYK): 1 to 10 µM | IC50 (PAK1): ≥ 10 µM

SMILES: COc1cc2nccc(Oc3ccc(NC(=O)c4ccn(-c5ccc(F)cc5)n4)c(F)c3)c2cc1OC [Ex78, N-(4-((6,7-dimethoxyquinolin-4-yl)oxy)-2-fluorophenyl)-1-(4-fluorophenyl)-1H-pyrazole-3-carboxamide]
IC50 (TYRO3): < 0.5 µM | IC50 (SYK): 1 to 10 µM

SMILES: Cc1ccc(NC(=O)c2ccn(-c3ccc(F)cc3)n2)cc1C#Cc1cnc2cccnn12 [Ex79, 1-(4-fluorophenyl)-N-(3-(imidazo[1,2-b]pyridazin-3-ylethynyl)-4-methylphenyl)-1H-pyrazole-3-carboxamide]
IC50 (RIPK1): < 0.5 µM | IC50 (RIPK2): < 0.5 µM

SMILES: Nc1ncnc2scc(C#Cc3cccc(NC(=O)c4ccn(-c5ccc(F)cc5)n4)c3)c12 [Ex81, N-(3-((4-aminothieno[2,3-d]pyrimidin-5-yl)ethynyl)phenyl)-1-(4-fluorophenyl)-1H-pyrazole-3-carboxamide]
IC50 (SYK): 1 to 10 µM

SMILES: Cc1ccc(NC(=O)c2ccn(-c3ccc(F)cc3)n2)cc1Oc1ccnc2[nH]ccc12 [Ex83, N-(3-((1H-pyrrolo[2,3-b]pyridin-4-yl)oxy)-4-methylphenyl)-1-(4-fluorophenyl)-1H-pyrazole-3-carboxamide]
IC50 (TAK1-TAB1): ≥ 10 µM

SMILES: O=C(Nc1cccc(NC(=O)c2ccn(-c3ccc(F)cc3)n2)c1)c1cccc(-c2ccn[nH]2)n1 [Ex84, N-(3-(1-(4-fluorophenyl)-1H-pyrazole-3-carboxamido)phenyl)-6-(1H-pyrazol-5-yl)picolinamide]
IC50 (PLK4): ≥ 10 µM

SMILES: CC(=O)Nc1nc(C)c(-c2ccnc(Nc3cc(NC(=O)c4ccn(-c5ccc(F)cc5)n4)ccc3C)n2)s1 [Ex86, N-(3-((4-(2-acetamido-4-methylthiazol-5-yl)pyrimidin-2-yl)amino)-4-methylphenyl)-1-(4-fluorophenyl)-1H-pyrazole-3-carboxamide]
IC50 (PLK4): < 0.5 µM
